Measured values reported in ChEMBL document CHEMBL1201862, “PubChem BioAssay data set” (2004).
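Values below derive from 48-hour exposures of cells grown in 96-well plates, with endpoints linearly interpolated between the two concentrations bracketing the appropriate inhibition level. GI50 marks 50% less growth.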 The source made the active and inactive calls. Rule as the data show it: active = GI50 up to about 1.1 µM and inactive = higher.

What was measured:
Experiment in all cases: NCI-60 cell line screen, 48 h
MDA-MB-435 = tested on: MDA-MB-435
T47D = tested on: T47D
BT-549 = tested on: BT-549
OVCAR-5 = tested on: OVCAR-5
SF-268 = tested on: SF-268
MOLT-4 = tested on: MOLT-4
ACHN = tested on: ACHN
SN12C = tested on: SN12C
786-0 = tested on: 786-0
NCI-H226 = tested on: NCI-H226
SF-295 = tested on: SF-295
NCI-H23 = tested on: NCI-H23
PC-3 = tested on: PC-3
HL-60 = tested on: HL-60
COLO 205 = tested on: COLO 205
UO-31 = tested on: UO-31
SK-MEL-28 = tested on: SK-MEL-28
A549 = tested on: A549
CCRF-CEM = tested on: CCRF-CEM
HOP-92 = tested on: HOP-92

| SMILES | GI50 (MDA-MB-435) | GI50 (T47D) | GI50 (BT-549) | GI50 (OVCAR-5) | GI50 (SF-268) | GI50 (MOLT-4) | GI50 (ACHN) | GI50 (SN12C) | GI50 (786-0) | GI50 (NCI-H226) | GI50 (SF-295) | GI50 (NCI-H23) | GI50 (PC-3) | GI50 (HL-60) | GI50 (COLO 205) | GI50 (UO-31) | GI50 (SK-MEL-28) | GI50 (A549) | GI50 (CCRF-CEM) | GI50 (HOP-92) |
| --- | --- | --- | --- | --- | --- | --- | --- | --- | --- | --- | --- | --- | --- | --- | --- | --- | --- | --- | --- | --- |
| O=C(O)c1ccccc1Sc1ccc(C=C2NC(=S)N(c3ccccc3)C2=O)s1 | > 100 µM (inactive) | 77.6 µM (inactive) | > 100 µM (inactive) | > 100 µM (inactive) | > 100 µM (inactive) | 54.1 µM (inactive) | 39.6 µM (inactive) | > 100 µM (inactive) | 18.8 µM (inactive) | > 100 µM (inactive) | > 100 µM (inactive) | > 100 µM (inactive) | > 100 µM (inactive) | 25.2 µM (inactive) | 54.7 µM (inactive) | 78.7 µM (inactive) | > 100 µM (inactive) | – | – | – |
| O=C1c2ccsc2-c2cccc3cccc1c23.O=C1c2sccc2-c2cccc3cccc1c23 | 17.1 µM (inactive) | 0.318 µM (active) | 1.94 µM (inactive) | 1.71 µM (inactive) | 7.89 µM (inactive) | 1.29 µM (inactive) | 2.37 µM (inactive) | 6.67 µM (inactive) | 5.89 µM (inactive) | 2.03 µM (inactive) | 8.79 µM (inactive) | – | 4.05 µM (inactive) | 11.2 µM (inactive) | 2.33 µM (inactive) | 4.67 µM (inactive) | 21.1 µM (inactive) | 3.32 µM (inactive) | 0.692 µM (active) | – |
| N#Cc1nc(CCN2C(=O)c3ccccc3C2=O)oc1N | > 100 µM (inactive) | > 100 µM (inactive) | > 100 µM (inactive) | > 100 µM (inactive) | > 100 µM (inactive) | > 100 µM (inactive) | > 100 µM (inactive) | > 100 µM (inactive) | > 100 µM (inactive) | > 100 µM (inactive) | > 100 µM (inactive) | > 100 µM (inactive) | > 100 µM (inactive) | – | > 100 µM (inactive) | > 100 µM (inactive) | > 100 µM (inactive) | > 100 µM (inactive) | > 100 µM (inactive) | – |
| CCCNC(=S)N/C=C1/C(=O)C=C(C)OC1=O | > 100 µM (inactive) | > 100 µM (inactive) | > 100 µM (inactive) | > 100 µM (inactive) | – | > 100 µM (inactive) | > 100 µM (inactive) | > 100 µM (inactive) | > 100 µM (inactive) | > 100 µM (inactive) | > 100 µM (inactive) | > 100 µM (inactive) | > 100 µM (inactive) | – | > 100 µM (inactive) | > 100 µM (inactive) | > 100 µM (inactive) | > 100 µM (inactive) | – | > 100 µM (inactive) |
| CN(C)CCNC(=O)c1cccc2c(NCCN(C)C)c3ccccc3nc12 | 2.94 µM (inactive) | 14.6 µM (inactive) | 7.59 µM (inactive) | 2.89 µM (inactive) | 3.07 µM (inactive) | 1 µM (active) | 1.76 µM (inactive) | 1.73 µM (inactive) | 1.7 µM (inactive) | 1.37 µM (inactive) | 4.93 µM (inactive) | 2.33 µM (inactive) | 2.42 µM (inactive) | – | 1.92 µM (inactive) | 2.92 µM (inactive) | 13.7 µM (inactive) | 1.91 µM (inactive) | 2 µM (inactive) | 2.16 µM (inactive) |
| C=C(CCC=C(C)C)C1CC=C(C)CC1 (stereo unspecified) | 18.2 µM (inactive) | 28.1 µM (inactive) | 95.7 µM (inactive) | > 100 µM (inactive) | 28.8 µM (inactive) | – | 17.8 µM (inactive) | 19.7 µM (inactive) | 17.1 µM (inactive) | > 100 µM (inactive) | 19.9 µM (inactive) | 17.7 µM (inactive) | – | – | 26.4 µM (inactive) | 16.4 µM (inactive) | – | 19.5 µM (inactive) | – | – |
| CN(C)CCC(C#N)(c1ccccc1)c1ccccc1 | > 100 µM (inactive) | 97.9 µM (inactive) | > 100 µM (inactive) | 79.6 µM (inactive) | > 100 µM (inactive) | 0.102 µM (active) | > 100 µM (inactive) | 72.4 µM (inactive) | > 100 µM (inactive) | > 100 µM (inactive) | 90.6 µM (inactive) | > 100 µM (inactive) | 87.3 µM (inactive) | 6.62 µM (inactive) | 45.2 µM (inactive) | 65.9 µM (inactive) | 23.1 µM (inactive) | > 100 µM (inactive) | – | 12.3 µM (inactive) |
| CN(C(=O)C12C3C4C1C1C2C3C41C(=O)O)C(C)(C)C (stereo unspecified) | > 100 µM (inactive) | > 100 µM (inactive) | > 100 µM (inactive) | > 100 µM (inactive) | > 100 µM (inactive) | > 100 µM (inactive) | > 100 µM (inactive) | > 100 µM (inactive) | > 100 µM (inactive) | – | > 100 µM (inactive) | > 100 µM (inactive) | > 100 µM (inactive) | > 100 µM (inactive) | > 100 µM (inactive) | > 100 µM (inactive) | > 100 µM (inactive) | > 100 µM (inactive) | > 100 µM (inactive) | > 100 µM (inactive) |
| O=C1c2c(Br)sc(Br)c2[C@H]2OC(=S)N[C@@H]12 | 2.96 µM (inactive) | 12.1 µM (inactive) | 10 µM (inactive) | 17.1 µM (inactive) | 3.27 µM (inactive) | 2.17 µM (inactive) | 4.45 µM (inactive) | 3.21 µM (inactive) | 11.3 µM (inactive) | 17.1 µM (inactive) | 15.2 µM (inactive) | 5.15 µM (inactive) | 4.07 µM (inactive) | – | 2.51 µM (inactive) | 1.75 µM (inactive) | 2.79 µM (inactive) | 17.1 µM (inactive) | 0.624 µM (active) | 11.9 µM (inactive) |
| C=C(CO[Si](C)(C)C(C)(C)C)C(C)=O | 17.6 µM (inactive) | 21.6 µM (inactive) | 20.2 µM (inactive) | 31 µM (inactive) | 31.4 µM (inactive) | 2.18 µM (inactive) | 26.5 µM (inactive) | 27.7 µM (inactive) | 17.2 µM (inactive) | > 69.3 µM (inactive) | > 100 µM (inactive) | 26.3 µM (inactive) | 26.9 µM (inactive) | 13.8 µM (inactive) | 24.5 µM (inactive) | > 46.9 µM (inactive) | 17.8 µM (inactive) | > 100 µM (inactive) | 0.678 µM (active) | – |
| CN1CC(c2ccccc2)C(O)(C2(c3ccccc3)CN(C)CC(c3ccccc3)C2=O)C(c2ccccc2)C1 (stereo unspecified) | > 100 µM (inactive) | > 100 µM (inactive) | > 100 µM (inactive) | > 100 µM (inactive) | > 100 µM (inactive) | > 100 µM (inactive) | > 100 µM (inactive) | > 100 µM (inactive) | > 100 µM (inactive) | > 100 µM (inactive) | 55.2 µM (inactive) | > 100 µM (inactive) | > 100 µM (inactive) | 22.4 µM (inactive) | 93.3 µM (inactive) | > 100 µM (inactive) | > 100 µM (inactive) | > 100 µM (inactive) | – | 50.1 µM (inactive) |
| OC1(c2ccc(Cl)cc2)c2ccc(CN3CCCC3)cc2C2=NCCN21 (stereo unspecified) | 10.5 µM (inactive) | 18.5 µM (inactive) | 8.77 µM (inactive) | 16.7 µM (inactive) | 14.8 µM (inactive) | 11.6 µM (inactive) | 16.7 µM (inactive) | 16.4 µM (inactive) | 15.2 µM (inactive) | – | 14.6 µM (inactive) | 16.9 µM (inactive) | 13.3 µM (inactive) | 12.6 µM (inactive) | 10.8 µM (inactive) | 14.1 µM (inactive) | 10.7 µM (inactive) | 17.1 µM (inactive) | 12.2 µM (inactive) | 2.53 µM (inactive) |
| CC(C)=CCC[C@]1(C)CC[C@]2(C)C3CCC(=C(C)C)[C@@H](CCCO)[C@]3(C)CC[C@@]2(C)C1 (stereo partly specified) | > 100 µM (inactive) | 4.92 µM (inactive) | > 100 µM (inactive) | 59.4 µM (inactive) | 82 µM (inactive) | 39.2 µM (inactive) | 83 µM (inactive) | 54.5 µM (inactive) | 32.4 µM (inactive) | > 100 µM (inactive) | 43.1 µM (inactive) | 84.9 µM (inactive) | 35.1 µM (inactive) | 33.8 µM (inactive) | > 100 µM (inactive) | 16.9 µM (inactive) | > 100 µM (inactive) | 52.6 µM (inactive) | 36.9 µM (inactive) | – |
| CC1Cc2c(Br)nc(N)nc2NC1=O (stereo unspecified) | > 100 µM (inactive) | > 100 µM (inactive) | > 100 µM (inactive) | > 100 µM (inactive) | > 100 µM (inactive) | > 100 µM (inactive) | > 100 µM (inactive) | > 100 µM (inactive) | > 100 µM (inactive) | > 100 µM (inactive) | > 100 µM (inactive) | > 100 µM (inactive) | > 100 µM (inactive) | – | > 100 µM (inactive) | > 100 µM (inactive) | > 100 µM (inactive) | > 100 µM (inactive) | – | – |
| COc1ccc2oc(=N)c(C(=O)Nc3ccccc3)cc2c1 | 15.3 µM (inactive) | 4.41 µM (inactive) | 17.7 µM (inactive) | 36.7 µM (inactive) | 20.6 µM (inactive) | 13.8 µM (inactive) | 13.7 µM (inactive) | 36.2 µM (inactive) | 3.09 µM (inactive) | 31.1 µM (inactive) | 16 µM (inactive) | 15.2 µM (inactive) | 32.9 µM (inactive) | – | 30.1 µM (inactive) | 45 µM (inactive) | 30 µM (inactive) | 34.3 µM (inactive) | 7.23 µM (inactive) | – |
